Assay results published in US20130172271A1, “Pharmaceutical Spray Drying” (priority 2012, published 2013).
Where a name gives a salt, the structure may show the parent alone.

Assays:
[1] = Chromatographic purity / impurities of spray dried vancomycin powders (Vancomycin B); format: physicochemical
Procedure: (§1) Batches for stability testing were made using the spray dried formulation vancomycin HCl (15% by weight), PEG-400 (3% by weight), mannitol (3% by weight) in WFI, with the API sourced from Abbott Laboratories (North Chicago, Ill.). Spray dried batches were stored at 25° C./60% Relative Humidity (RH), 30° C./60% RH, and 40° C./75% RH for three months. The stability data on moisture by Karl Fischer, pH (of the reconstituted solution), reconstitution time and chromatographic purity are presented in Table 7. The chromatographic purity was examined using the analytical HPLC method described in the current USP (United States Pharmacopeia) monograph for vancomycin. The test results for the API lot used to make the spray dried product were also listed for comparison.
Three vancomycin formulations were prepared in WFI or citrate buffer. The solutions were spray dried as described above. Resultant powders were tested along with the vancomycin HCl API for impurities, reconstitution time and moisture as shown in Table 8.

[2] = Stability testing of spray dried vancomycin batch stored at 25° C./60% RH, 30° C./60% RH and 40° C./75% RH; format: physicochemical; settings: Initial
Procedure: as §1
The chromatographic purity of vancomycin B for all samples tested in this study were within USP specifications. All samples were stored at the accelerated conditions of 40° C./75% RH for 3 months and met USP criterion for vancomycin B by chromatographic purity (NLT 80% vancomycin B).

Compound	N-Demethylvancomycin ([1]; Table 8) [%]	Vancomycin B ([1]; Table 8) [%]	Other ([1]; Table 8, other impurities) [%]	Vancomycin B [2] [%]
CN[C@H](CC(C)C)C(=O)N[C@H]1C(=O)N[C@@H](CC(N)=O)C(=O)N[C@H]2C(=O)N[C@H]3C(=O)N[C@H](C(=O)N[C@H](C(=O)O)c4cc(O)cc(O)c4-c4cc3ccc4O)[C@H](O)c3ccc(c(Cl)c3)Oc3cc2cc(c3O[C@@H]2O[C@H](CO)[C@@H](O)[C@H](O)[C@H]2O[C@H]2C[C@](C)(N)[C@H](O)[C@H](C)O2)Oc2ccc(cc2Cl)[C@H]1O [API, vancomycin HCl]	0.6	94.9	4.5	
CN[C@H](CC(C)C)C(=O)N[C@H]1C(=O)N[C@@H](CC(N)=O)C(=O)N[C@H]2C(=O)N[C@H]3C(=O)N[C@H](C(=O)N[C@H](C(=O)O)c4cc(O)cc(O)c4-c4cc3ccc4O)[C@H](O)c3ccc(c(Cl)c3)Oc3cc2cc(c3O[C@@H]2O[C@H](CO)[C@@H](O)[C@H](O)[C@H]2O[C@H]2C[C@](C)(N)[C@H](O)[C@H](C)O2)Oc2ccc(cc2Cl)[C@H]1O [API Lot 09097619, vancomycin HCl]				91.9
